Results on 17 compounds are retold here after patent US12600698B2, “Kinase inhibitors” (Vidya Therapeutics, Inc., priority 2021, dated 2026).

Test [1] addresses T1, BTK (Homo sapiens, UniProt Q06187). Put plainly: BTK IC50 (EZ reader kinase assay). The conditions noted are these: ATP 1 mM, BTK 2 nM, 90 minutes at room temperature. More on the design: purchased Carna. It is filed as biochemical. As to the method:
Solutions of compounds (test or control) in DMSO were prepared at the desired concentrations, and serially diluted to 11 concentrations by 3-fold dilution in 384pp-plate using TECAN EVO200. 20 nL of stock were transferred to 384 plate using Echo550. DMSO was used as vehicle control.
Two separate solutions were prepared—an ATP solution containing MgCl2 (10 mM), Brij-35 (0.01%), DTT (2 mM), BSA (0.05%), EGTA (1 mM), HEPE (pH7.5) (50 mM), FLPeptide (6 uM) and ATP (4 mM); and a BTK solution containing MgCl2 (10 mM), Brij-35 (0.01%), DTT (2 mM), BSA (0.05%), EGTA (1 mM), HEPE (pH7.5) (50 mM) and BTK (2.67 nM). (BTK was obtained from Carna; FLPeptide2 was obtained from PerkinElmer and Ibrutinib was obtained from Selleck.) 5 uL of ATP solution were added to each well, followed by addition of 15 uL of BTK solution to initiate the reaction. (Note the final volume of each well was 20 uL containing MgCl2 (10 mM), Brij-35 (0.01%), DTT (2 mM), BSA (0.05%), EGTA (1 mM), HEPE (pH7.5) (50 mM), FLPeptide (1.5 uM), ATP (1 mM) and BTK (2 nM). The plates were incubated at room temperature for 90 minutes and then stopping buffer added (75 uL, containing 0.5 M EDTA) to terminate the reaction. Samples from each well were analyzed using EZ reader.
The % remaining activity was calculated using read conversion ratio (CR) according to the equation: […]
XLFit (equation 201) was used to calculate IC50's by floating both bottom and top.
BTK IC50 values are provided in Table 5, for the compounds described in Examples 1-13, wherein: • “A” denotes an IC50<1 nM; • “B” denotes an IC50 1-10 nM; and • “C” denotes an IC50>10 nM.

For test [2], the target named is T1, BTK. In words: Assay to determine BTK inactivation rate (active site probe ELISA, human whole blood). It is filed as cell-based. More on the design: tissue StemExpress; host or cells: human whole blood. The conditions noted are these: 37° C., 5-60 minutes, read-out: BTK hWB (Kinact/Ki). The protocol: This example employed a BTK active site probe-based assay using a biotinylated covalent inhibitor in human and mouse blood or mouse brain lysate.
Human whole blood was obtained from StemExpress (Stockton, CA) and kept at ambient temperature until the time of the experiment, which was approximately 24 hours after it had been collected. • 1. A 1× lysis buffer was prepared by using 10× lysis buffer (Cell Signaling Technology, #9083S, Danvers, MA), molecular biology grade water, 100× Halt Protease and Phosphatase Inhibitor Cocktail, (ThermoFisher, #78440, Waltham, MA), and BTK active site probe (final: 0.4 μM). This was prepared fresh each experimental day. • 2. Lysis buffer was added in the volume of 30 μL to all wells in a V-bottom plate (Greiner Bio-One, #651261, Monroe, NC) in preparation for timepoint collections. • 3. Compounds were reconstituted to stocks of 10 mM in 100% DMSO and were diluted in 2-fold serial dilutions to generate an 8-point curve in DMSO, with the last point being DMSO only. • 4. A working 10× dilution series was created using 1 μL of the prepared DMSO titration into […] 1×PBS in order to keep the DMSO constant (0.03% DMSO final). • 5. The whole blood was added in the volume of 225 μL per well in a new 96 w v-bottom plate. • 6. For compound treatment, 25 μL of the 10× dilution series in PBS was added to the 225 μL whole blood, followed by briefly pipetting up and down, twice. • 7. The plates were then covered with plastic lids and incubated at 37° C. for 5, 10, 15, 30, 60 minutes. • 8. At each timepoint, 30 μL of compound- or DMSO (vehicle)-treated blood is pulled from each column and added to preloaded collection plates that contained 30 μL of lysis buffer supplemented with BTK active site probe. Samples were then mixed briefly by pipetting up and down, twice. • 9. The plates with collected and lysed samples were shaken and covered with sealing film on a rotator for 60 minutes at room temperature. These samples were used fresh for detection via ELISA, and remaining sample was frozen at −80° C. if a repeat was necessary. Determining Amount of Unoccupied BTK Using ELISA • 1. All streptavidin pre-coated plates (R&D Systems, #CP004, Minneapolis, MN) were brought to room temperature while samples are lysing. • 2. Assay Buffer 1, 1×PBS+0.05% Tween 20+1% BSA was prepared, filtered, and stored at 4° C. when not in use. • 3. Using this Assay Buffer 1, assay buffer+1× protease/phosphatase inhibitor cocktail (PICS) was prepared in the amount needed for all samples. • 4. Assay Buffer+PICS in the volume of 90 μL/well was added to the ELISA plate for blood samples. • 5. Assay Buffer+PICs in the volume of 50 μL/well was added to the ELISA plate for brain samples. • 6. Lysed blood sample (10 μL) was added to the ELISA plate. • 7. Lysed brain sample (50 μL) was added to the ELISA plate. • 8. Samples were loaded into the ELISA plate for a total of 100 μL/well, in duplicate, and remained in the plate, sealed, overnight at 4° C. • 9. The following day, the plate was washed three times with 1× Wash Buffer (1×PBS+0.05% Tween 20) at 250 μL/well using a plate washer. • 10. The plate was inverted to expel all fluid each time and blotted on clean paper towels to remove remaining liquid. • 11. Assay Buffer 2 was prepared (1×PBS+0.05% Tween 20+0.5% BSA) and kept at 4° C. when not in use. • 12. The primary antibody α-BTK (clone D3H5, Cell Signaling Technology #8547S Danvers, MA) was diluted 1:500 in Assay Buffer 2. • 13. Diluted a-BTK antibody was added at 100 μL/well. • 14. The plate was covered with adhesive film and incubated for 90 minutes at room temperature. • 15. The plate was washed three times with 1× Wash Buffer at 250 μL/well using a plate washer. • 16. The plate was inverted to expel all fluid each time and blotted on clean paper towels to remove remaining liquid. • 17. The detection antibody (Jackson Immuno Research, #711-005-152) was diluted 1:2,500 with Assay Buffer 2. • 18. The diluted antibody was added at 100 μL/well. • 19. […]
(An ELISA detects its analyte on a solid surface through an enzyme-linked reagent.)

The structures appear in SMILES notation.

T1 sequence (Q06187 whole entry): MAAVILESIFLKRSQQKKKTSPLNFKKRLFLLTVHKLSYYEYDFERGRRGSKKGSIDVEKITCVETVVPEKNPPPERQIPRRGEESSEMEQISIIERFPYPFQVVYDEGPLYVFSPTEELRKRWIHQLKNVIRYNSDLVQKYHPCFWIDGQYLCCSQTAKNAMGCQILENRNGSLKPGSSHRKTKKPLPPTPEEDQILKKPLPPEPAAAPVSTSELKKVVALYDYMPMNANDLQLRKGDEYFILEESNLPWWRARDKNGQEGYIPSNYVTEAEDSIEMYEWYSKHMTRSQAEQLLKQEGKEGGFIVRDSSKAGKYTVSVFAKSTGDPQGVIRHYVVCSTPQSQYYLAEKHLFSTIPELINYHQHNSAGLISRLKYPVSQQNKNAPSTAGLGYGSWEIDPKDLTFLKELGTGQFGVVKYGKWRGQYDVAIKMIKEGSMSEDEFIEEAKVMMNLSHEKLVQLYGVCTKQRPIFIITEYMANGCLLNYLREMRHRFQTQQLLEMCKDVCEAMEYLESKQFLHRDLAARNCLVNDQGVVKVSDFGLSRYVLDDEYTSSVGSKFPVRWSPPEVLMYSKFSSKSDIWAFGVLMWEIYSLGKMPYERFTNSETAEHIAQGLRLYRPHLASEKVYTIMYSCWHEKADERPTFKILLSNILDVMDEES

As for `CC#CC(=O)N[C@@H]1CCC[C@H](c2c(F)cc(C(N)=O)c3[nH]c(C)c(Cl)c23)C1` (relative stereo) [Compound 6-(cis), 4-((cis)-3-(but-2-ynamido)cyclohexyl)-3-chloro-5-fluoro-2-methyl-1H-indole-7-carboxamide], the IC50 (commonly the concentration that inhibits the measured activity by half) against BTK [1] is 1 to 10 nM. Besides, the kinact/KI on BTK [2] was < 8330 M⁻¹ s⁻¹.

In the case of `CC#CC(=O)N[C@@H]1CCC=C(c2c(F)cc(C(N)=O)c3[nH]c(C)c(Cl)c23)C1` [1A(R), (R)-4-(5-(but-2-ynamido)cyclohex-1-en-1-yl)-3-chloro-5-fluoro-2-methyl-1H-indole-7-carboxamide], the IC50 at BTK [1] lay within 1 to 10 nM. Moreover, the kinact/KI on BTK [2] was < 8330 M⁻¹ s⁻¹.

Consider `CC#CC(=O)N[C@H]1CCC=C(c2c(F)cc(C(N)=O)c3[nH]c(C)c(Cl)c23)C1` [1A(S), (S)-4-(5-(but-2-ynamido)cyclohex-1-en-1-yl)-3-chloro-5-fluoro-2-methyl-1H-indole-7-carboxamide], for which the IC50 at BTK [1] is < 1 nM. Further, the kinact/KI at BTK [2] is < 8330 M⁻¹ s⁻¹.

On to `CC#CC(=O)N[C@@H]1CCC=C(c2c(F)c(F)c(C(N)=O)c3[nH]c(C)c(Cl)c23)C1` [2A(R), (R)-4-(5-(but-2-ynamido)cyclohex-1-en-1-yl)-3-chloro-5,6-difluoro-2-methyl-1H-indole-7-carboxamide], for which the IC50 against BTK [1] lay within 1 to 10 nM. Further, at BTK [2], the kinact/KI is < 8330 M⁻¹ s⁻¹.

As to `CC#CC(=O)N[C@H]1CCC=C(c2c(F)c(F)c(C(N)=O)c3[nH]c(C)c(Cl)c23)C1` [2A(S), (S)-4-(5-(but-2-ynamido)cyclohex-1-en-1-yl)-3-chloro-5,6-difluoro-2-methyl-1H-indole-7-carboxamide], on BTK [1], the IC50 was < 1 nM. The kinact/KI at BTK [2] was > 16700 M⁻¹ s⁻¹.

Consider `CC#CC(=O)N[C@H]1CCC=C(c2c(F)cc(C(N)=O)c3[nH]c(C)c(C)c23)C1` [3A(S), (S)-4-(5-(but-2-ynamido)cyclohex-1-en-1-yl)-5-fluoro-2,3-dimethyl-1H-indole-7-carboxamide], for which the IC50 against BTK [1] is < 1 nM. Moreover, the kinact/KI at BTK [2] is > 16700 M⁻¹ s⁻¹.

As to `CC#CC(=O)N[C@@H]1C=C(c2c(F)cc(C(N)=O)c3[nH]c(C)c(C)c23)CCC1` [3B(S), (S)-4-(3-(but-2-ynamido)cyclohex-1-en-1-yl)-5-fluoro-2,3-dimethyl-1H-indole-7-carboxamide], the IC50 against BTK [1] was 1 to 10 nM. Besides, at BTK [2], the kinact/KI was > 16700 M⁻¹ s⁻¹.

In turn, `CC#CC(=O)N[C@@H]1C=C(c2c(F)cc(C(N)=O)c3[nH]c(C)c(Cl)c23)CCC1` [5B(S), (S)-4-(3-(but-2-ynamido)cyclohex-1-en-1-yl)-3-chloro-5-fluoro-2-methyl-1H-indole-7-carboxamide] registered an IC50 against BTK [1] of 1 to 10 nM. For the same compound, on BTK [2], the kinact/KI is < 8330 M⁻¹ s⁻¹.

`CC#CC(=O)N[C@H]1CCC[C@@H](c2c(F)cc(C(N)=O)c3[nH]c(C)c(Cl)c23)C1` [6-(1R,3S), 4-((1R,3S)-3-(but-2-ynamido)cyclohexyl)-3-chloro-5-fluoro-2-methyl-1H-indole-7-carboxamide] displayed an IC50 against BTK [1] of 1 to 10 nM. Also, on BTK [2], the kinact/KI was < 8330 M⁻¹ s⁻¹.

`CC#CC(=O)N[C@H]1CCC[C@H](c2c(F)cc(C(N)=O)c3[nH]c(C)c(Cl)c23)C1` [6-(1S,3S), 4-((1S,3S)-3-(but-2-ynamido)cyclohexyl)-3-chloro-5-fluoro-2-methyl-1H-indole-7-carboxamide] had an IC50 against BTK [1] of 1 to 10 nM. Further, the kinact/KI at BTK [2] was 8330 to 16700 M⁻¹ s⁻¹.

In turn, `CC#CC(=O)N[C@H]1CCC[C@H](c2c(F)cc(C(N)=O)c3[nH]c(C)c(C)c23)C1` [10-(1S,3S), 4-((1S,3S)-3-(but-2-ynamido)cyclohexyl)-5-fluoro-2,3-dimethyl-1H-indole-7-carboxamide] came in with an IC50 against BTK [1] of 1 to 10 nM. The kinact/KI at BTK [2] was < 8330 M⁻¹ s⁻¹.

The compound `CC#CC(=O)N[C@@H]1CCC[C@@H](c2c(F)c(F)c(C(N)=O)c3[nH]c(C)c(Cl)c23)C1` [11-(1R,3R), 4-[(1R,3R)-3-(but-2-ynoylamino)cyclohexyl]-3-chloro-5,6-difluoro-2-methyl-1H-indole-7-carboxamide] displayed an IC50 against BTK [1] of 1 to 10 nM. Moreover, on BTK [2], the kinact/KI is < 8330 M⁻¹ s⁻¹.

Regarding `CC#CC(=O)N[C@H]1CC[C@@H](c2c(F)cc(C(N)=O)c3[nH]c(C)c(C)c23)C1` [12-(1R,3S), 4-((1R,3S)-3-(but-2-ynamido)cyclopentyl)-5-fluoro-2,3-dimethyl-1H-indole-7-carboxamide], the IC50 against BTK [1] fell in the range of 1 to 10 nM. The kinact/KI at BTK [2] is < 8330 M⁻¹ s⁻¹.

Compound `CC#CC(=O)N[C@@H]1CCC[C@@H](c2c(F)c(F)c(C(N)=O)c3[nH]c(C)c(C#N)c23)C1` [Compound 7-(1R,3R), 4-((1R,3R)-3-(but-2-ynamido)cyclohexyl)-3-cyano-5,6-difluoro-2-methyl-1H-indole-7-carboxamide] came in with an IC50 at BTK [1] of 1 to 10 nM. Besides, the kinact/KI at BTK [2] was in the range of 8330 to 16700 M⁻¹ s⁻¹.

`CC#CC(=O)N[C@H]1CCC[C@@H](c2c(F)c(F)c(C(N)=O)c3[nH]c(C)c(C#N)c23)C1` [Compound 7-(1R,3S), 4-((1R,3S)-3-(but-2-ynamido)cyclohexyl)-3-cyano-5,6-difluoro-2-methyl-1H-indole-7-carboxamide] had an IC50 on BTK [1] of 1 to 10 nM. For the same compound, the kinact/KI at BTK [2] was < 8330 M⁻¹ s⁻¹.

`CC#CC(=O)N[C@H]1CCC[C@@H](c2c(F)c(F)c(C(N)=O)c3[nH]c(C)c(Cl)c23)C1` [Compound 11-(1R,3S), 4-((1R,3S)-3-(but-2-ynamido)cyclohexyl)-3-chloro-5,6-difluoro-2-methyl-1H-indole-7-carboxamide] returned an IC50 against BTK [1] of 1 to 10 nM. At BTK [2], the kinact/KI is < 8330 M⁻¹ s⁻¹.

Take `CC#CC(=O)N[C@@H]1CC[C@@H](c2c(F)cc(C(N)=O)c3[nH]c(C)c(C)c23)C1` [Compound 13-(1R,3R), 4-((1R,3R)-3-(but-2-ynamido)cyclopentyl)-5-fluoro-2,3-dimethyl-1H-indole-7-carboxamide]: the IC50 against BTK [1] lay within 1 to 10 nM. Further, at BTK [2], the kinact/KI was < 8330 M⁻¹ s⁻¹.
